{
  "source": "patent EP0604983B1",
  "about": "“Naphthalene derivatives” (Mitsubishi Chemical Corporation, priority 1992, dated 1994)",
  "note": "Marks after values point to notes of the source that are not given here.",
  "data": [
    {"tested_on": "KK-Ay male mice", "assay": "Blood sugar and blood triglyceride (TG) lowering test in KK-Ay mice, test compound mixed with powder food", "type": "in vivo", "conditions": "KK-Ay male mice; dose c.a. 30 mg/kg/day (footnote a) mixed with powder food for four days; plasma triglyceride 5th day; vs control group", "excerpt": "(§1) The effect of the compound of the present invention on reducing blood sugar and blood lipid levels based on the ability of improving insulin resistance has been determined by the following test.\n(§2) KK-Ay male mice of five to six week age were obtained from Nihon CREA. The mice have been bred with a powder feed (MF powders for breeding rats and mice, Oriental Yeast Co.) from 7 days prior to the test. The mice of nine to eighteen week age having body weights of 35 g or more were used for the test.\n(§3) The blood sugar values were measured by withdrawing blood (20 µl) from animal's tail vein using a heparin-treated capillary, centrifuging the blood to obtain plasma, and measuring the glucose level in the plasma by the glucose-oxidase method. The triglyceride (TG) levels in plasma were measured by the glycerol enzyme method. Five mice in a group having 200 mg/dl or more of the blood sugar level were used for one test.\n(§4) The test compounds were mixed with powder food such that the average dosage of the former is 10 - 100 mg/kg/day, and the mixture was administered to the mice for four days. Blood was withdrawn from the animal's tail vein before administration, and five days after administration, and blood sugar and TG levels were measured using the methods mentioned above. The amount of the food ingested was measured every day during the test period, and the average of the amounts for four days was calculated.\n(§5) The ability of reducing blood sugar level was determined as described below. Namely, the means of the blood sugar values at the time before administration of the test compound in a control group (a group to which the test compound was not administered) and an administration group (a group to which the test compound was administered) (such values are referred to as Mcon and Mad, respectively) and the means of the blood sugar values of the control group and the administration group on 5th day after administration (such values are referred to as Con and Ad, respectively) were determined. The blood sugar lowering effect found in the administration group was expressed by the following formula. Blood sugar lowering effect(%) = 1-(Ad/Mad)/(Con/Mcon)x100 [formula]\n(§6) The blood TG lowering ratio (%) was measured by the same procedure as that described above. All the values were statistically evaluated under significance level P=0.05.", "values": [
      {"molecule": "O=C1NC(=O)C(=Cc2ccc3cc(OCc4ccccc4)ccc3c2)S1", "note": "[Example 13, 5-(6-benzyloxy-2-naphthyl)-methylene-thiazolidine-2,4-dione]", "TG lowering ratio (%)": "21.0%"},
      {"molecule": "O=C1NC(=O)C(=Cc2ccc3cc(OCc4ccccc4F)ccc3c2)S1", "note": "[Example 15, 5-[6-(2-fluorobenzyloxy)-2-naphthyl]-methylene-thiazolidine-2,4-dione]", "TG lowering ratio (%)": "38.8%"},
      {"molecule": "O=C1NC(=O)C(=Cc2ccc3cc(OCc4cccc(F)c4)ccc3c2)S1", "note": "[compound 16]", "TG lowering ratio (%)": "22.3%"},
      {"molecule": "O=C1NC(=O)C(=Cc2ccc3cc(OCc4ccc(F)cc4)ccc3c2)S1", "note": "[compound 17]", "TG lowering ratio (%)": "24.4%"},
      {"molecule": "O=C1NC(=O)C(=Cc2ccc3cc(OCc4c(F)cccc4F)ccc3c2)S1", "note": "[compound 49]", "TG lowering ratio (%)": "43.4*** %"},
      {"molecule": "O=C1NC(=O)C(=Cc2ccc3cc(OCc4c(F)cccc4C(F)(F)F)ccc3c2)S1", "note": "[compound 50]", "TG lowering ratio (%)": "27.7** %"}
    ]},
    {"tested_on": "KK-Ay male mice", "assay": "Blood sugar and blood triglyceride (TG) lowering test in KK-Ay mice, test compound mixed with powder food", "type": "in vivo", "conditions": "KK-Ay male mice; dose c.a. 50 mg/kg/day mixed with powder food for four days; plasma triglyceride 5th day; vs control group", "excerpt": "as §1, §2, §3, §4, §5, §6", "values": [
      {"molecule": "O=C1NC(=O)C(=Cc2ccc3cc(OCc4ccccc4Cl)ccc3c2)S1", "note": "[compound 18]", "TG lowering ratio (%)": "53.8* %"},
      {"molecule": "O=C1NC(=O)C(=Cc2ccc3cc(OCc4ccc(Cl)cc4)ccc3c2)S1", "note": "[compound 19]", "TG lowering ratio (%)": "21.7%"},
      {"molecule": "O=C1NC(=O)C(=Cc2ccc3cc(OCc4ccc(Br)cc4)ccc3c2)S1", "note": "[compound 21]", "TG lowering ratio (%)": "14.7%"},
      {"molecule": "Cc1ccccc1COc1ccc2cc(C=C3SC(=O)NC3=O)ccc2c1", "note": "[compound 22]", "TG lowering ratio (%)": "9.5%"},
      {"molecule": "N#Cc1ccc(COc2ccc3cc(C=C4SC(=O)NC4=O)ccc3c2)cc1", "note": "[compound 32]", "TG lowering ratio (%)": "39.6* %"},
      {"molecule": "O=C1NC(=O)C(=Cc2ccc3cc(OCc4ccccc4[N+](=O)[O-])ccc3c2)S1", "note": "[compound 33]", "TG lowering ratio (%)": "16.0%"},
      {"molecule": "O=C1NC(=O)C(=Cc2ccc3cc(OCc4ccc([N+](=O)[O-])cc4)ccc3c2)S1", "note": "[compound 35]", "TG lowering ratio (%)": "56.9%"},
      {"molecule": "COC(=O)c1ccc(COc2ccc3cc(C=C4SC(=O)NC4=O)ccc3c2)cc1", "note": "[compound 39]", "TG lowering ratio (%)": "16.0%"},
      {"molecule": "O=C1NC(=O)C(=Cc2ccc3cc(OCc4ccccc4C(F)(F)F)ccc3c2)S1", "note": "[compound 46]", "TG lowering ratio (%)": "51.0** %"},
      {"molecule": "O=C1NC(=O)C(=Cc2ccc3cc(OCc4ccc(C(F)(F)F)cc4)ccc3c2)S1", "note": "[compound 48]", "TG lowering ratio (%)": "25.6%"}
    ]},
    {"tested_on": "KK-Ay male mice", "assay": "Blood sugar and blood triglyceride (TG) lowering test in KK-Ay mice, test compound mixed with powder food", "type": "in vivo", "conditions": "KK-Ay male mice; dose c.a. 100 mg/kg/day (footnote b) mixed with powder food for four days; plasma triglyceride 5th day; vs control group", "excerpt": "as §1, §2, §3, §4, §5, §6", "units": {"TG lowering ratio (%)": "%"}, "values": [
      {"molecule": "O=C1NC(=O)C(=Cc2ccc3cc(OCCc4ccccc4)ccc3c2)S1", "note": "[compound 14]", "TG lowering ratio (%)": 19.9}
    ]},
    {"tested_on": "KK-Ay male mice", "assay": "Blood sugar and blood triglyceride (TG) lowering test in KK-Ay mice, test compound mixed with powder food", "type": "in vivo", "conditions": "KK-Ay male mice; mixed with powder food for four days; Dose: c.a. 10 mg/kg/day; plasma triglyceride (glycerol enzyme method) on 5th day vs control group", "excerpt": "as §1, §2, §3, §4, §5, §6", "values": [
      {"molecule": "O=C1NC(=O)C(Cc2ccc3cc(OCc4ccccc4)ccc3c2)S1", "note": "(stereo not drawn) [Example 2]", "TG lowering ratio (%)": "9.1* %"},
      {"molecule": "O=C1NC(=O)C(Cc2ccc3cc(OCc4ccccc4F)ccc3c2)S1", "note": "(stereo not drawn) [Example 4, 5-[6-(2-fluorobenzyloxy)-2-naphthyl]-methyl-thiazolidine-2,4-dione]", "TG lowering ratio (%)": "41.6* %"},
      {"molecule": "O=C1NC(=O)C(Cc2ccc3cc(OCc4ccc(F)cc4)ccc3c2)S1", "note": "(stereo not drawn) [Example 6]", "TG lowering ratio (%)": "37.7* %"},
      {"molecule": "O=C1NC(=O)C(Cc2ccc3cc(OCc4ccccc4Cl)ccc3c2)S1", "note": "(stereo not drawn) [Example 7]", "TG lowering ratio (%)": "28.3%"},
      {"molecule": "O=C1NC(=O)C(Cc2ccc3cc(OCc4ccc(Cl)cc4)ccc3c2)S1", "note": "(stereo not drawn) [Example 8]", "TG lowering ratio (%)": "9.4%"},
      {"molecule": "O=C1NC(=O)C(Cc2ccc3cc(OCc4ccccc4C(F)(F)F)ccc3c2)S1", "note": "(stereo not drawn) [Example 10]", "TG lowering ratio (%)": "37.2%"},
      {"molecule": "CCc1ccc(CCOc2ccc(CC3SC(=O)NC3=O)cc2)nc1", "note": "(stereo not drawn) [Pioglitazone, pioglitazone, reference compound]", "TG lowering ratio (%)": "-4.0%"}
    ]},
    {"tested_on": "KK-Ay male mice", "assay": "Blood sugar and blood triglyceride (TG) lowering test in KK-Ay mice, test compound mixed with powder food", "type": "in vivo", "conditions": "KK-Ay male mice; mixed with powder food for four days; footnote a): Dose c.a. 100 mg/kg/day; plasma triglyceride (glycerol enzyme method) on 5th day vs control group", "excerpt": "as §1, §2, §3, §4, §5, §6", "units": {"TG lowering ratio (%)": "%"}, "values": [
      {"molecule": "Cc1c(C)c2c(c(C)c1O)CCC(C)(COc1ccc(CC3SC(=O)NC3=O)cc1)O2", "note": "(stereo not drawn) [CS-045, reference compound]", "TG lowering ratio (%)": -18.5},
      {"molecule": "O=C1NC(=O)C(Cc2ccc3cc(OCc4ccccn4)ccc3c2)S1", "note": "(stereo not drawn) [Example 1, 5-[6-(2-pyridylmethyloxy)-2-naphthyl]-methyl-thiazolidine-2,4-dione]", "TG lowering ratio (%)": 56.4},
      {"molecule": "O=C1NC(=O)C(Cc2ccc3cc(Oc4ccccc4)ccc3c2)S1", "note": "(stereo not drawn) [Example 3]", "TG lowering ratio (%)": 31.3}
    ]}
  ]
}
